Our source for the flash point values is a flash point compilation (Sun et al. 2020).

Counter-ions that a name gives are not always drawn.

`CCN(CC)C(=O)c1cccnc1` [N,N-diethylpyridine-3-carboxamide] displayed a flash point of 113.00 °C.

Regarding `CN(C)c1ccccc1` [N,N-dimethylaniline], the flash point amounted to 63.00 °C.

In the case of `CN(C)C(=O)Cl` [N,N-dimethylcarbamoyl chloride], the flash point was 68.00 °C.

Turning to `c1ccc(N(c2ccccc2)c2ccccc2)cc1` [N,N-diphenylaniline], the flash point stood at 180.00 °C.

`CC(=O)NCCO` [N-(2-hydroxyethyl)acetamide] showed a flash point of 177.00 °C.

Take `CC(=O)Nc1ccc(C)cc1` [N-(4-methylphenyl)acetamide]: the flash point was determined as 168.00 °C.

With `CCCCCCCCCCCCCCCCCC(=O)NCCNC(=O)CCCCCCCCCCCCCCCCC` [N-[2-(octadecanoylamino)ethyl]octadecanamide], the flash point came to 280.00 °C.

For `CC(=O)Nc1ccc(C(=O)CCl)cc1` [N-[4-(2-chloroacetyl)phenyl]acetamide], the flash point was 110.00 °C.

`CN(C)P(=O)(N(C)C)N(C)C` [N-[bis(dimethylamino)phosphoryl]-N-methylmethanamine]: the flash point came out at 106.00 °C.

As to `CCC(C)Nc1c([N+](=O)[O-])cc(C(C)(C)C)cc1[N+](=O)[O-]` (stereo not drawn) [N-butan-2-yl-4-tert-butyl-2,6-dinitroaniline], the flash point was 36.00 °C.

`CCC(C)=NO` [N-butan-2-ylidenehydroxylamine] gave a flash point of 59.00 °C.

`CCCCN(C(C)=O)c1ccccc1` [N-butyl-N-phenylacetamide] returned a flash point of 141.00 °C.

`CCCCN(CCC)N=O` [N-butyl-N-propylnitrous amide] returned a flash point of 94.00 °C.

`CCCC=NO` [N-butylidenehydroxylamine] had a flash point of 58.00 °C.

`ClNc1ccccc1` [N-chloroaniline]: the flash point was found to be 108.00 °C.

The compound `CCN(C)N=O` [N-ethyl-N-methylnitrous amide] returned a flash point of 76.00 °C.

As to `CCCCNC` [N-methylbutan-1-amine], the flash point was 13.00 °C.

`CNC=O` [N-methylformamide]: the flash point was 98.00 °C.

`CNC` [N-methylmethanamine] showed a flash point of -7.00 °C.

In the case of `CC(=O)Nc1ccccc1` [N-phenylacetamide], the flash point worked out at 174.00 °C.

Regarding `CC(C)NC(C)C` [N-propan-2-ylpropan-2-amine], the flash point was -1.00 °C.

`CCCNCCC` [N-propylpropan-1-amine] had a flash point of 17.00 °C.

As for `CCSC(=O)N(CC)C1CCCCC1` [S-ethyl N-cyclohexyl-N-ethylcarbamothioate], the flash point was 139.00 °C.

For `CCSC(=O)Cl` [S-ethyl chloromethanethioate], the flash point came to 31.00 °C.

On to `CCCSC(=O)N(CCC)CCC` [S-propyl N,N-dipropylcarbamothioate], for which the flash point is 122.00 °C.

`CCCSC(=O)Cl` [S-propyl chloromethanethioate] showed a flash point of 62.00 °C.

Regarding `C#CCOS(=O)OC1CCCCC1Oc1ccc(C(C)(C)C)cc1` (stereo not drawn) [[2-(4-tert-butylphenoxy)cyclohexyl] prop-2-ynyl sulfite], the flash point is 28.00 °C.

For `OCC1CCC(CO)CC1` (stereo not drawn) [[4-(hydroxymethyl)cyclohexyl]methanol], the flash point was found to be 166.00 °C.

As to `C/C=C/c1ccccc1` [[(E)-prop-1-enyl]benzene], the flash point turned out to be 52.00 °C.

For the compound `C[Si](C)(C)N[Si](C)(C)C` [[dimethyl-(trimethylsilylamino)silyl]methane], the flash point came to 9.00 °C.

As for `CC(=O)OC(C)=O` [acetyl acetate], the flash point was found to be 49.00 °C.

For the compound `CC(=O)Br` [acetyl bromide], the flash point was determined as 75.00 °C.

The compound `CC(=O)Cl` [acetyl chloride] came in with a flash point of 4.00 °C.

In turn, `CC(=O)OOC(C)=O` [acetyl ethaneperoxoate] registered a flash point of 45.00 °C.

`C#C` [acetylene] had a flash point of -18.00 °C.

Compound `CC(=O)[O][Hg][c]1ccccc1` [acetyloxy(phenyl)mercury] showed a flash point of 60.00 °C.

`Nc1ccccc1` [aniline] yielded a flash point of 70.00 °C.

As for `COc1ccccc1` [anisole], the flash point amounted to 52.00 °C.

For `O=Cc1ccccc1` [benzaldehyde], the flash point came to 64.00 °C.

As to `N#Cc1ccccc1C#N` [benzene-1,2-dicarbonitrile], the flash point was found to be 162.00 °C.

`Oc1cccc(O)c1` [benzene-1,3-diol] yielded a flash point of 127.00 °C.

In turn, `Nc1ccc(N)cc1` [benzene-1,4-diamine] came in with a flash point of 155.00 °C.

`O=C(Cl)c1ccc(C(=O)Cl)cc1` [benzene-1,4-dicarbonyl chloride]: the flash point was 180.00 °C.

`Oc1ccc(O)cc1` [benzene-1,4-diol]: the flash point is 165.00 °C.

Consider `c1ccccc1` [benzene], for which the flash point was -11.00 °C.

For the compound `Sc1ccccc1` [benzenethiol], the flash point was 53.00 °C.

`c1ccc2c(c1)ccc1ncccc12` [benzo[f]quinoline]: the flash point was 166.00 °C.

With `N#Cc1ccccc1` [benzonitrile], the flash point stood at 72.00 °C.

The compound `CC(=O)OCc1ccccc1` [benzyl acetate] came in with a flash point of 91.00 °C.

`O=C(OCc1ccccc1)c1ccccc1` [benzyl benzoate]: the flash point came out at 148.00 °C.

On to `CCCCC(CC)COC(=O)c1ccc(C(=O)OCC(CC)CCCC)cc1` (stereo not drawn) [bis(2-ethylhexyl) benzene-1,4-dicarboxylate], for which the flash point stood at 238.00 °C.

Consider `CCCCC(CC)COC(=O)CCCCCCCCC(=O)OCC(CC)CCCC` (stereo not drawn) [bis(2-ethylhexyl) decanedioate], for which the flash point is 210.00 °C.

Consider `CCCCC(CC)COC(=O)CCCCC(=O)OCC(CC)CCCC` (stereo not drawn) [bis(2-ethylhexyl) hexanedioate], for which the flash point was found to be 196.00 °C.

`CC(C)CCCCCOC(=O)c1ccccc1C(=O)OCCCCCC(C)C` [bis(6-methylheptyl) benzene-1,2-dicarboxylate] registered a flash point of 232.00 °C.

`CC(C)CCCCCCOC(=O)C1CCCCC1C(=O)OCCCCCCC(C)C` (stereo not drawn) [bis(7-methyloctyl) cyclohexane-1,2-dicarboxylate]: the flash point turned out to be 224.00 °C.

`CC(C)CCCCCCCOC(=O)c1ccccc1C(=O)OCCCCCCCC(C)C` [bis(8-methylnonyl) benzene-1,2-dicarboxylate] gave a flash point of 232.00 °C.

Compound `CC(=O)C=C=O` [but-1-ene-1,3-dione] registered a flash point of 33.00 °C.

`OC=CCCO` [but-1-ene-1,4-diol] displayed a flash point of 128.00 °C.

Compound `C=CCC` [but-1-ene] yielded a flash point of -79.00 °C.

In the case of `OCC=CCO` [but-2-ene-1,4-diol], the flash point came out at 128.00 °C.

Consider `CC=CC(=O)O` [but-2-enoic acid], for which the flash point was determined as 88.00 °C.

With `C=CC(C)=O` [but-3-en-2-one], the flash point was -7.00 °C.

Turning to `C=CC=C` [buta-1,3-diene], the flash point is -76.00 °C.

The compound `CCCCO.CCCCO.CCCCO.CCCCO.[Ti]` [butan-1-ol;titanium] yielded a flash point of 77.00 °C.

The compound `CCC(C)N` (stereo not drawn) [butan-2-amine] yielded a flash point of -9.00 °C.

`CCC(C)=O` [butan-2-one] registered a flash point of -3.00 °C.

Regarding `CCC(C)OC(C)=O` (stereo not drawn) [butan-2-yl acetate], the flash point was determined as 17.00 °C.

As to `CCC(C)c1ccccc1` (stereo not drawn) [butan-2-ylbenzene], the flash point was determined as 52.00 °C.

Compound `CC(N)CCN` (stereo not drawn) [butane-1,3-diamine] returned a flash point of 52.00 °C.

Compound `OCCCCO` [butane-1,4-diol] returned a flash point of 119.00 °C.

The compound `CCCCS` [butane-1-thiol] registered a flash point of 13.00 °C.

On to `CC(=O)C(C)=O` [butane-2,3-dione], for which the flash point worked out at 27.00 °C.

Compound `N#CCCC#N` [butanedinitrile] came in with a flash point of 132.00 °C.

Take `O=C(O)CCC(=O)O` [butanedioic acid]: the flash point turned out to be 160.00 °C.

For the compound `CCCC(=O)Cl` [butanoyl chloride], the flash point worked out at 22.00 °C.

In the case of `CCCCOC(=O)C(C)O` (stereo not drawn) [butyl 2-hydroxypropanoate], the flash point turned out to be 71.00 °C.

For the compound `CCCCOC(=O)CC(C)C` [butyl 3-methylbutanoate], the flash point came to 53.00 °C.

Take `CCCCCCCC/C=C\CCCCCCCC(=O)OCCCC` [butyl (Z)-octadec-9-enoate]: the flash point is 180.00 °C.

`CCCCOC(C)=O` [butyl acetate] showed a flash point of 22.00 °C.

With `CCCCOC(=O)c1ccccc1` [butyl benzoate], the flash point was found to be 107.00 °C.

Compound `CCCCOC=O` [butyl formate] showed a flash point of 18.00 °C.

As for `C=CC(=O)OCCCC` [butyl prop-2-enoate], the flash point came to 49.00 °C.

Regarding `CCCCOC(=O)CC` [butyl propanoate], the flash point came out at 38.00 °C.

The compound `CCCCc1ccccc1` [butylbenzene] showed a flash point of 71.00 °C.

For the compound `C[Si](C)(C)Cl` [chloro(trimethyl)silane], the flash point is -18.00 °C.

Compound `ClC1CCCCC1` [chlorocyclohexane] came in with a flash point of 32.00 °C.

Consider `CCCl` [chloroethane], for which the flash point was -50.00 °C.

The compound `C=CCl` [chloroethene] gave a flash point of -79.00 °C.

On to `ClCc1ccccc1` [chloromethylbenzene], for which the flash point worked out at 67.00 °C.

`O=c1ccc2ccccc2o1` [chromen-2-one] returned a flash point of 151.00 °C.

With `CC(C)c1ccccc1` [cumene], the flash point was determined as 36.00 °C.

Regarding `N#CN` [cyanamide], the flash point worked out at 141.00 °C.

Take `C1=CCCC=CCCC=CCC1` [cyclododeca-1,5,9-triene]: the flash point turned out to be 71.00 °C.
